The source of these data is patent US20220125844A1 (priority 2020, published 2022).

The subject of data set [1] is primary human natural killer (NK) cells. The following applies: cited from earlier work.
In data set [2] the test system is CAR-NK cells (effector) with MV-4-11 target cells. Nature of the data set: CAR-NK cell apoptosis assay, annexin V staining and flow cytometry. The following applies: clinically-relevant concentration, morphine 25 ng/mL, two-hour incubation of effector cells; data only in FIG. 1. The format is cell-based, human. (A flow cytometer gives signals particle by particle.)

Data set [3] concerns primary human NK cells (effector) with MV-4-11 target cells. The data set is described as follows: Primary human NK cell apoptosis assay, annexin V staining and flow cytometry. The format is cell-based. The settings on record: clinically-relevant concentration, morphine 25 ng/mL, two-hour incubation of effector cells; data only in FIG. 1.

On to `C[C@@H](NC(=O)[C@@H](N)Cc1ccc(O)cc1)C(=O)NCC(=O)N(C)[C@@H](Cc1ccccc1)C(=O)NCCO` [DAMGO, [D-Ala2, N-Me-Phe4, Gly5-ol]-enkephalin], for which the “primary human NK cell cytotoxicity after preincubation with opioid” value (shortened to “primary human NK cell cytotoxicity”) in data set [1] is “reduced”. For `CCC(=O)C(CC(C)N(C)C)(c1ccccc1)c1ccccc1` (centres unmarked) [methadone], the “primary human NK cell cytotoxicity” value in data set [1] is on record as “reduced”. Regarding `CN1CC[C@]23c4c5ccc(O)c4O[C@H]2[C@@H](O)C=C[C@H]3[C@H]1C5` [morphine], the “effect on CAR-NK cell function (ability to induce apoptosis in MV-4-11 cells)” value in data set [2] is given as “functionally inhibited”. Besides, in data set [3], the “effect on primary human NK cell function (ability to induce apoptosis in MV-4-11 cells)” value is “functionally inhibited”. Also, the “primary human NK cell cytotoxicity” value in data set [1] was “reduced”.
